We go through two compounds from PMC12508057, “Discovery of ETI41 and ETI60: novel selective endosomal Toll-like receptor inhibitors for the treatment of autoimmune diseases” (Experimental & Molecular Medicine, 2025).

For one data set, the system named is Daudi cells. Description: Water-soluble tetrazolium assay, cell viability in Daudi. In kind it is cell-based. As for the experimental part: Daudi cells were seeded into 96-well plates at a density of 5 × 10^4 cells per well.
One-tailed paired Student’s t-tests were performed using Microsoft Excel (Microsoft). […] The therapeutic index was calculated as […]. Animal experimental results are expressed as mean ± standard deviation and analyzed using SPSS v.20 (IBM SPSS Statistics). Homogeneity of variance was assessed using Levene’s test.
Data are from at least three independent experiments (n = 3) and statistical differences between the induced case and other cases were analyzed and verified using a one-tailed Student’s t-test (*P < 0.05, **P < 0.01, ***P < 0.001).

A further data set addresses T1, TLR4 (Homo sapiens, UniProt O00206).
T1 construct: in differentiated human THP-1 cells; endogenous in cells; host or cells: differentiated THP-1
Put plainly: Surface TLR specificity, TNF-α secretion in differentiated THP-1. In kind it is cell-based. To be noted: 2 and 5 μM, differentiated THP-1, LPS. As for the experimental part:
(§1) RAW 264.7 and differentiated THP-1 cells were seeded into 96-well plates at 2 × 10^4 cells per well, while Daudi cells were seeded at 5 × 10^4 cells per well. After stabilization for 30 min, cells were stimulated with specific TLR agonists for 4 or 24 h. Supernatants were diluted and transferred to precoated ELISA plates to measure TNF-α secretion using kits from Invitrogen. Optical absorbance was measured using a BioTek Synergy HTX multimode microplate reader, and data were interpolated using BioTek Gen5 software.
(§2) The cells were activated with agonistic ligands: […], TLR3 (poly I:C, 2 μg/ml, 24 h), TLR4 (LPS, 10 or 100 ng/ml, 4 h), TLR5 (FLA-ST, 500 ng/ml, 4 h), TLR7 (ORN06/LyoVec, 2 μg/ml, 24 h; and IMQ, 1 μg/ml, 4 h), TLR8 (TL8-506, 2 μg/ml, 24 h) and TLR9 (ODN2395, 1 μM, 4 h) at various concentrations in RAW 264.7 cells, human Daudi cells and THP-1 cells. Data are from at least three independent experiments (n = 3) and statistical differences between the induced case and other cases were analyzed and verified using a one-tailed Student’s t-test (*P < 0.05, **P < 0.01, ***P < 0.001).
(§3) Given the structural similarities among TLR family proteins, achieving high selectivity is challenging. We tested the effects of ETI41 and ETI60 on various surface TLRs to determine their specificity. […] TLRs activate transcription factors, including NF-κB, MAPKs, c-Jun N-terminal kinase (JNK), extracellular signal-regulated kinase (ERK) and IRF7, which regulate cellular functions such as proliferation and apoptosis. Western blot analysis confirmed that ETI41 and ETI60 inhibited IMQ- or ODN2395-induced phosphorylation of MAPKs (p-ERK, p-JNK and p-p38), nuclear translocation of the NF-κB p65 subunit, Iκ-Bα degradation and IRF7 expression in RAW 264.7 cells (Fig. 2a–c and Supplementary Figs. 2 and 3).

For a further data set, the target named is T2, TLR5 (Homo sapiens, UniProt O60602).
T2 construct: in differentiated human THP-1 cells; endogenous in cells; host or cells: differentiated THP-1
The description is as above. The format is cell-based. The settings on record: 2 and 5 μM, differentiated THP-1, FLA-ST. As for the experimental part:
as §1, §2, §3

The subject of data set [1] is endosomal and lysosomal pH. Put plainly: pH assay of endosomes and lysosomes in RAW 264.7. The format is cell-based, mouse. As for the experimental part:
RAW 264.7 cells were seeded into black 96-well plates at […] cells per well and incubated overnight. After washing, the cells were treated with phenol-free RPMI 1640 medium (Gibco). Following 30 min of treatment with ETI41 or ETI60, cells were incubated with 20 µg/ml of pHrodo Red Dextran (Thermo Fisher Scientific) or 10 µM LysoSensor Yellow/Blue DND-160 (Thermo Fisher Scientific). Fluorescence was measured using a BioTek Synergy HTX Multimode Microplate Reader. Data were analyzed using the BioTek Gen5 software.
Fig. 3 Binding mechanism of ETI41 and ETI60 with TLR7 and TLR9. a ETI41 and ETI60 bind to the extracellular domain of TLR7. b Detailed intermolecular interactions ofETI41 and ETI60 are shown with the key residues of TLR7. c ETI41 and ETI60 bind to the extracellular domain of TLR9. d Intermolecular interactions of ETI41 and ETI60 with the key residues of TLR9. The asterisk indicates chain A of TLR7 and TLR9. ETI41 and ETI60 are depicted in ball-and-stick models. Bonds are represented by lines, with distances measured in ångström (Å) units. […] Data presented are from three independent experiments (n = 3), and statistical differences between the induced case and other cases were analyzed and verified using a one-tailed Student’s t-test (*P < 0.05, **P < 0.01, ***P < 0.001). […]

T2 sequence (O60602 21-858): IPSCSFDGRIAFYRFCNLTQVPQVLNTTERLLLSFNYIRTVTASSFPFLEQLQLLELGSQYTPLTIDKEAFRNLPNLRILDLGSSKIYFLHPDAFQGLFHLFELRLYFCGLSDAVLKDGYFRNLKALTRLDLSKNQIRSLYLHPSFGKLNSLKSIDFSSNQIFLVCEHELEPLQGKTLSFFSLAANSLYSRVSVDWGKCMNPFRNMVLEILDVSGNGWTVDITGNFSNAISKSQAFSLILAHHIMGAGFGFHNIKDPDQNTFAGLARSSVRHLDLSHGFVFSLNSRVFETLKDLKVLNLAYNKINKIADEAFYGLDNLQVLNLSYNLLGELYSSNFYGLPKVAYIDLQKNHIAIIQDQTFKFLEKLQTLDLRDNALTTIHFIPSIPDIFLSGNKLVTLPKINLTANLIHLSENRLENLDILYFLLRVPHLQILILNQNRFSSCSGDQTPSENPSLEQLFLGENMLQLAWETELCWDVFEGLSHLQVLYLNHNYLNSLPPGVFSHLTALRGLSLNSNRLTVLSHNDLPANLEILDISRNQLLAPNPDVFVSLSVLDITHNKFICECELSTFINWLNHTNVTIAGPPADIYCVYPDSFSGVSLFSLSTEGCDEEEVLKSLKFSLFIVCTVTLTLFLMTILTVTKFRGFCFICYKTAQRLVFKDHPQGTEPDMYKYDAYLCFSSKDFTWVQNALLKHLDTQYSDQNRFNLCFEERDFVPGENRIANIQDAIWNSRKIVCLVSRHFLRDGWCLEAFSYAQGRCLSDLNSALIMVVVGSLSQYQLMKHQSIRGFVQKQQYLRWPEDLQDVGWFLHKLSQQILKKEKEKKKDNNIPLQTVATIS
T1 sequence (O00206 24-839): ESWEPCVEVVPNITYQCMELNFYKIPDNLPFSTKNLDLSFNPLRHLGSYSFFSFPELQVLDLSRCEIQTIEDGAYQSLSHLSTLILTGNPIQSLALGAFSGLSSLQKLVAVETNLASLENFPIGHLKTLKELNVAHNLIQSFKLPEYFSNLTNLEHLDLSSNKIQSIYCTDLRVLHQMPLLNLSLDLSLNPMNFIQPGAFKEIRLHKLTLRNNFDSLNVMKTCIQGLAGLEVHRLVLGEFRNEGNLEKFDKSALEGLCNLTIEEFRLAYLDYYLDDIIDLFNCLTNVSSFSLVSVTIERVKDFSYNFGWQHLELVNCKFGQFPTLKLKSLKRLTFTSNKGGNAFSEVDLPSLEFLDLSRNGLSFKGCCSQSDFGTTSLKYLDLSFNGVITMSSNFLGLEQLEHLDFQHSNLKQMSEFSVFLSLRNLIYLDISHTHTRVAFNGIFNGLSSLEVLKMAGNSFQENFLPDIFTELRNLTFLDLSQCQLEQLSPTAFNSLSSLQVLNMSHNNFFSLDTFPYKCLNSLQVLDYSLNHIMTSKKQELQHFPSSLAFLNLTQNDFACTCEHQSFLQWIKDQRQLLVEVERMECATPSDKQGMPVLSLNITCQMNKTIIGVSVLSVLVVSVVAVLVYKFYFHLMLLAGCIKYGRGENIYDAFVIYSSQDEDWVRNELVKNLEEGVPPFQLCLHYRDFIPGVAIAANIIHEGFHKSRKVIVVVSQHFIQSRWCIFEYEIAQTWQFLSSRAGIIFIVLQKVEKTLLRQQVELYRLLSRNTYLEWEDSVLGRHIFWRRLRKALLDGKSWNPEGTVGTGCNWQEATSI
T1 sequence (Q9Y6Y9 19-160 partner): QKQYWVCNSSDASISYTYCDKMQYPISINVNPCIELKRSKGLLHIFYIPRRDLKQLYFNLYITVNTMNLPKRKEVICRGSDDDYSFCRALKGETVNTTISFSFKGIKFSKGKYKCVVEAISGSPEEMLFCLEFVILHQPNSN

`Cc1cc2c(N)c3c(nc2n1CCCN(C)C)CCCCCC3` [ETI41]: in the data set on Daudi cells, the “Cell viability (LD50), cytotoxicity” value is reported as >200,000 nM. In addition, the “Inhibition of TLR4 (TNF-α secretion)” value on TLR4 was “neither compound inhibited”. In addition, the “Inhibition of TLR5 (TNF-α secretion)” value on TLR5 is recorded as “neither compound inhibited”. The “pH of endosomes containing TLR3, TLR7, TLR8 and TLR9” value in data set [1] was “did not significantly affect”.
In the case of `COc1ccc2c3c(N)c4c(nc3n(CCCN(C)C)c2c1)CCCC4` [ETI60], the “Cell viability (LD50), cytotoxicity” value in the data set on Daudi cells is reported as 38,410 nM. Besides, the “Inhibition of TLR4 (TNF-α secretion)” value at TLR4 was “neither compound inhibited”. Also, the “Inhibition of TLR5 (TNF-α secretion)” value on TLR5 is on record as “neither compound inhibited”. In addition, the “pH of endosomes containing TLR3, TLR7, TLR8 and TLR9” value in data set [1] is reported as “did not significantly affect”.
